Assay type in all cases: in vitro ADME
The target of one series is CYP2C9 (Homo sapiens, UniProt P11712). The series can be described thus: CYP inhibition in human liver microsomes (Eurofins protocol ITEMG232). Further details: using isoform-specific substrates incubated with human liver microsomes; tissue Eurofins ITEMG232; host or cells: human liver microsomes. The settings on record: probe diclofenac, substrate diclofenac, read-out: CYP2C9 Inh %. Here is the method: (§1) The following substrates were used; CYP1A phenacetin, CYP2B6 bupropion, CYP2C8 paclitaxel and amodiaquine, CYP2C9 diclofenac, CYP2C19 omeprazole, CYP2D6 dextromethorphan, CYP3A midazolam and testosterone.
(§2) At the end of the incubation, the formation of metabolite was monitored by HPLC-MS/MS as the peak area response.
For orientation: Liver microsomes are vesicles of endoplasmic reticulum, rich in cytochrome P450 enzymes.

For a further series, the target named is T1, CYP2C19 (Homo sapiens, UniProt P33261).
T1 construct: using isoform-specific substrates incubated with human liver microsomes; tissue Eurofins ITEMG232; host or cells: human liver microsomes
The description is as above. The settings on record: probe omeprazole, substrate omeprazole, read-out: CYP2C19 Inh %. Here is the method: as §1, §2

Another series concerns the target T2, CYP2B6 (Homo sapiens, UniProt P20813).
T2 construct: using isoform-specific substrates incubated with human liver microsomes; tissue Eurofins ITEMG232; host or cells: human liver microsomes
T2 sequence (P20813 1-491): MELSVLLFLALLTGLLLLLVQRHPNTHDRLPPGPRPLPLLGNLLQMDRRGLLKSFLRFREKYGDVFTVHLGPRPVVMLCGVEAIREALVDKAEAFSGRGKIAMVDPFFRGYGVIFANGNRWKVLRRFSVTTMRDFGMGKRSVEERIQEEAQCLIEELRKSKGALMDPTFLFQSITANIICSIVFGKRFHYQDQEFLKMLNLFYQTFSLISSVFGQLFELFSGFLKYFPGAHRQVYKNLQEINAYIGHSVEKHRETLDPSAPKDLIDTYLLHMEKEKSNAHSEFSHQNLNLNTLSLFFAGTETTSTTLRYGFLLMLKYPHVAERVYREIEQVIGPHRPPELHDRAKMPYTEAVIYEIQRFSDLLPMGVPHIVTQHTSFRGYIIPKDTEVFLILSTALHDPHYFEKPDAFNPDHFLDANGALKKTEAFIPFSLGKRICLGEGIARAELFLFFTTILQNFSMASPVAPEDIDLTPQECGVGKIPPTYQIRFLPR
The description is as above. Conditions: probe bupropion, substrate bupropion, read-out: CYP2B6 Inh %. Here is the method:
as §1, §2

The target in the next series is T3, CYP2D6 (Homo sapiens, UniProt P10635).
T3 construct: tissue Eurofins ITEMG232; host or cells: human liver microsomes
Described as above. Conditions: probe dextromethorphan, substrate dextromethorphan, read-out: CYP2D6 Inh %. As to the method:
as §1, §2

For another series, the target named is T4, CYP2C8 (Homo sapiens, UniProt P10632).
T4 construct: using isoform-specific substrates incubated with human liver microsomes; tissue Eurofins ITEMG232; host or cells: human liver microsomes
T4 sequence (P10632 1-490): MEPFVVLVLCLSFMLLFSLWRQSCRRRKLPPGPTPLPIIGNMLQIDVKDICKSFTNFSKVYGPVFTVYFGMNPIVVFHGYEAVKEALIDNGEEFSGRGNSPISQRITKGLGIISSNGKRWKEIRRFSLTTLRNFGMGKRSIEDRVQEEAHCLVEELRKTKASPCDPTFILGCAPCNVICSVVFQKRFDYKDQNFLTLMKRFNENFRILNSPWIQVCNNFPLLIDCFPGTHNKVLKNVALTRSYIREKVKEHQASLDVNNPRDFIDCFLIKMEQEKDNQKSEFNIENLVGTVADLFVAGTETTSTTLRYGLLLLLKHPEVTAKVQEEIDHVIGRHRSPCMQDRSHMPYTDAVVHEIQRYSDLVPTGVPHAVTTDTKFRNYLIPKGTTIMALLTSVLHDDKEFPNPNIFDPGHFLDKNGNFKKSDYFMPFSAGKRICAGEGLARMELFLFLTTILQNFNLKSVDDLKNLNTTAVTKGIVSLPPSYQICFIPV
The series is described as above. Conditions: probe paclitaxel and amodiaquine, substrates paclitaxel and amodiaquine, read-out: CYP2C8 Inh %. As to the method: as §1, §2

The target in another series is T5, CYP1A (Homo sapiens, UniProt P05177).
T5 construct: using isoform-specific substrates incubated with human liver microsomes; tissue Eurofins ITEMG232; host or cells: human liver microsomes
T5 sequence (P05177 2-516 limits assumed): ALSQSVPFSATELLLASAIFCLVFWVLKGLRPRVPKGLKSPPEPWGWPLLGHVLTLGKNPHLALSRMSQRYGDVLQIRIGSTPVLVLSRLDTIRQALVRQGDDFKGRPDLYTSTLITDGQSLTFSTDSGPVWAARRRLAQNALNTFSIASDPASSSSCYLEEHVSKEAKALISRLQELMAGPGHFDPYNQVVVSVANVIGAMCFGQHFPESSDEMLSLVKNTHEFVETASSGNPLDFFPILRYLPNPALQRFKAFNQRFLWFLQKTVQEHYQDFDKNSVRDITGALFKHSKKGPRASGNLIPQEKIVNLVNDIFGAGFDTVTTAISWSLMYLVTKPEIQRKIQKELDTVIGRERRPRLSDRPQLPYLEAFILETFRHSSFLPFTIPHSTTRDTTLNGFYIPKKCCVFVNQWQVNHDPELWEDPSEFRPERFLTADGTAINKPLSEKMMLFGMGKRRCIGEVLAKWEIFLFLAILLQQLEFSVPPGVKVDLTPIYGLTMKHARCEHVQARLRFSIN
The description is as above. The settings on record: probe phenacetin, substrate phenacetin, read-out: CYP1A Inh %. Here is the method: as §1, §2

Another series addresses CYP3A4 (Homo sapiens, UniProt P08684). Put plainly: CYP inhibition in human liver microsomes (Eurofins protocol ITEMG232), midazolam substrate. More on the design: using isoform-specific substrates incubated with human liver microsomes; tissue Eurofins ITEMG232; host or cells: human liver microsomes. Conditions: probe midazolam, read-out: CYP3A4 midazolam Inh %. Here is the method: as §1, §2

The next series relates to CYP3A4&5. Put plainly: CYP inhibition in human liver microsomes (Eurofins protocol ITEMG232), testosterone substrate. Conditions: probe testosterone, read-out: CYP3A4&5 testosterone Inh %. Here is the method: as §1, §2
Series [1] can be described thus: Metabolic stability in pooled human liver microsomes with or without NADPH. The settings on record: human, pooled human liver microsomes, pooled human liver microsomes 0.5 mg/mL in PBS, 1 uM test compound, 37° C. Here is the method:
Pooled human liver microsomes in PBS at a concentration of 0.5 mg/mL was incubated with or without 1 mM NADPH for 70 min at 37° C. Test compound was added after 10 minutes to a final concentration of 1 uM. Samples were withdrawn at 0, 5, 15 and 60 minutes and added to test tubes containing acetonitrile, to stop the reaction, and with terfenadine, used as internal standard. After centrifugation at 10000×g for 5 minutes the supernatant was diluted 1:1 with 1% formic acid. Samples were separated on a reverse phase column and detected by triple quadrupole MSMS (Agilant model 6540). The concentration of the parent compound at the different time points was measured with an external standard curve using terfenadine as internal standard and the initial metabolic rate in the presence or absence of NADPH calculated.

Where [2] appears, read: with 1 mM NADPH, read-out: T1/2, +NaDPH.
Setting [3] is: without NADPH, read-out: T1/2, no NaDPH.

This passage reports inhibition and half-life results from US20230348444A1, “NOVEL COMPOUNDS FOR USE IN THE TREATMENT OF DISEASES ASSOCIATED WITH ANGIOTENSIN II” (Vicore Pharma AB, priority 2020, published 2023).

Where two headings read alike, the source gives them in different places.

Chain of CYP3A4 (P08684 whole entry, canonical isoform): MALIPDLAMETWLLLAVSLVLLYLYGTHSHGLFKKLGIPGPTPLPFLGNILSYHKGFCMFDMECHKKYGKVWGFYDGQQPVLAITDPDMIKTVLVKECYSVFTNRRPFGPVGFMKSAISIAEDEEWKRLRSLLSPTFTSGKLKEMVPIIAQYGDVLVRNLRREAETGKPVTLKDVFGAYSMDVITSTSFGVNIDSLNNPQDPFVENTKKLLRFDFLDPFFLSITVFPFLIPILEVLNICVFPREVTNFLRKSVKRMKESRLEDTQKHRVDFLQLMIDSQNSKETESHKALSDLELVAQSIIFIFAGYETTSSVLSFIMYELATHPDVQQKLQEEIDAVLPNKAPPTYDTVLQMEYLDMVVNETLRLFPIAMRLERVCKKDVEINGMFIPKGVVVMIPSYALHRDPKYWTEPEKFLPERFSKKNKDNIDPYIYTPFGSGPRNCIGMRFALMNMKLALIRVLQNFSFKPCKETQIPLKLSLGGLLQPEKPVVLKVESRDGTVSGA
T1 sequence (P33261 whole entry, canonical isoform): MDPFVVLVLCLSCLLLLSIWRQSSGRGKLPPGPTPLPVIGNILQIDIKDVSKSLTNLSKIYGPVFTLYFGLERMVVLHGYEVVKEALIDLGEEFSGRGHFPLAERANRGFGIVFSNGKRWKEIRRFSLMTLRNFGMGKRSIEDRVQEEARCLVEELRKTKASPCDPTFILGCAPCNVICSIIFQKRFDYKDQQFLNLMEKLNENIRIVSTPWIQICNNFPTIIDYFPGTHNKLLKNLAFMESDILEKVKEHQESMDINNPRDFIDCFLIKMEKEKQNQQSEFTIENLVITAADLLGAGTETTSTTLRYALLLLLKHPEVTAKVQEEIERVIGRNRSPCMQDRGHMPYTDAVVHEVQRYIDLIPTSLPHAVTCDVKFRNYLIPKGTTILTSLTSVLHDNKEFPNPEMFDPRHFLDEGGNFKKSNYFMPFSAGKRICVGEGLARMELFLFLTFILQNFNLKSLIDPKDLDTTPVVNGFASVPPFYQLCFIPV
T3 sequence (P10635 whole entry): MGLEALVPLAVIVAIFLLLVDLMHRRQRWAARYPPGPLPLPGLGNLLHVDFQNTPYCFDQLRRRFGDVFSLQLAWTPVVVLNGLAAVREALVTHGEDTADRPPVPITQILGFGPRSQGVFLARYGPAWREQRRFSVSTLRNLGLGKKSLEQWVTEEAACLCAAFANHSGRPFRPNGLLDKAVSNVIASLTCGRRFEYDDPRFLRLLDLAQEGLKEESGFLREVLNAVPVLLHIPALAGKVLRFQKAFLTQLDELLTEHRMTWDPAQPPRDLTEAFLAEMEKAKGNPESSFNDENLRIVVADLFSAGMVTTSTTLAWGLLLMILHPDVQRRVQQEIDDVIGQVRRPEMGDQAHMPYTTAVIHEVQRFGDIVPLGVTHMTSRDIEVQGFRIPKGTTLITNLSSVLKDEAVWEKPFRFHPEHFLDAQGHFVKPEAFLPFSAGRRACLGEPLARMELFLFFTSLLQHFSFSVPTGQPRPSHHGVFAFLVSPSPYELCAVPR
Chain of CYP2C9 (P11712 whole entry, canonical isoform): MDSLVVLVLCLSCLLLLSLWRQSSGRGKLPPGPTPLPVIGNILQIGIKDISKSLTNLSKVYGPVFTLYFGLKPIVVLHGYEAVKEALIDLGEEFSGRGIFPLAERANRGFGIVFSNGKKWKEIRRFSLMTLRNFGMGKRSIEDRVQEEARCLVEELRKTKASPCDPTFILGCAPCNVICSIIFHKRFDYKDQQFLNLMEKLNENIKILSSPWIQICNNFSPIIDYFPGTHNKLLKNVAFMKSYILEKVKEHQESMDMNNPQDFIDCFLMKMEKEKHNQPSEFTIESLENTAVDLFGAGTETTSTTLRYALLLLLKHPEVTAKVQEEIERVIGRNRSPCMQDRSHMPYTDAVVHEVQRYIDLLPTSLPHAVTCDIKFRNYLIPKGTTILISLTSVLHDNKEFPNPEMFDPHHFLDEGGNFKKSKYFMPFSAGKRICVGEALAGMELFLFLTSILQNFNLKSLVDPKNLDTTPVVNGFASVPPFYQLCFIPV

Consider `CCCCOC(=O)NS(=O)(=O)c1sc(CC(C)C)cc1-c1ccc(Cn2ccnc2C)c(F)c1` [Example 2, Butyl (3-(3-fluoro-4-((2-methyl-1H-imidazol-1-yl)methyl)phenyl)-5-isobutylthiophen-2-yl)sulfonylcarbamate trifluoroacetic acid], for which the inhibition at 10 µM at CYP2C9 stood at 70%; on CYP2C19 it was 55%; on CYP2B6, 41%; at CYP2D6, 22%; on CYP2C8, 80%; on CYP1A, 19%. The inhibition at 10 µM on CYP3A4 is -15%; with CYP3A4&5 it was 21%.
Turning to `Cc1nccn1Cc1ccc(-c2cc(CC(C)C)sc2S(=O)(=O)NC(=O)OCCO)cc1F.O=C(O)C(F)(F)F` [Example 4, 2-Hydroxyethyl (3-(3-fluoro-4-((2-methyl-1H-imidazol-1-yl)methyl)phenyl)-5-isobutyl-thiophen-2-yl)sulfonylcarbamate trifluoroacetic acid], the inhibition at 10 µM at CYP2C9 worked out at 58%; on CYP2C19 it was 31%; at CYP2B6 it was 55%; at CYP2D6 it was 54%; on CYP2C8, 54%; at CYP1A, 27%. In addition, the inhibition at 10 µM at CYP3A4 was -66%; in the series on CYP3A4&5, 22%. The half-life at 1 uM in [1] (setting [2]) and in [1] (setting [3]) was greater than 1 h each time.
In the case of `CCc1nccn1Cc1ccc(-c2cc(CC(C)C)sc2S(=O)(=O)NC(=O)OCCC(F)(F)F)cc1F.O=C(O)C(F)(F)F` [Example 5, 3,3,3-Trifluoropropyl (3-(4-((2-ethyl-1H-imidazol-1-yl)methyl)-3-fluorophenyl)-5-iso-butyl-thiophen-2-yl)sulfonylcarbamate trifluoroacetic acid], the inhibition at 10 µM amounted to 71% on CYP2C9; 63% at CYP2C19; 37% at CYP2B6; 49% at CYP2D6; 64% on CYP2C8; 35% on CYP1A. In addition, the inhibition at 10 µM on CYP3A4 is -24%; with CYP3A4&5 it was 5%. In addition, the half-life at 1 uM in series [1] (setting [2]) is 0.3 h; in series [1] (setting [3]) it was 0.917 h.
On to `CC(C)Cc1cc(-c2ccc(Cn3ccnc3C(C)(C)C)c(F)c2)c(S(=O)(=O)NC(=O)OCCO)s1` [Example 17, 2-Hydroxyethyl (3-(4-((2-(tert-butyl)-1H-imidazol-1-yl)methyl)-3-fluorophenyl)-5-isobutylthiophen-2-yl)sulfonylcarbamate], for which the inhibition at 10 µM at CYP2C9 is 36.8%; on CYP2C19, 53.1%; at CYP2B6, 33.8%; on CYP2D6, 73.4%; at CYP2C8, 78.6%; on CYP1A it was 29.9%. Further, the inhibition at 10 µM was -20.6% on CYP3A4 and 3.7% in the series on CYP3A4&5.
`COC(=O)NS(=O)(=O)c1sc(CC(C)C)cc1-c1ccc(Cn2ccnc2C(C)(C)C)c(F)c1` [Example 20, Methyl (3-(4-((2-(tert-butyl)-1H-imidazol-1-yl)methyl)-3-fluorophenyl)-5-isobutylthiophen-2-yl)sulfonylcarbamate]: the inhibition at 10 µM was determined as 57.9% at CYP2C9; 45.6% on CYP2C19; 32.6% on CYP2B6; 22.3% on CYP2D6; 90.5% at CYP2C8; 46% at CYP1A. Further, the inhibition at 10 µM is -56.9% on CYP3A4 and -4.8% with CYP3A4&5.
For `COC(=O)NS(=O)(=O)c1sc(CC(C)C)cc1-c1ccc(Cn2ccnc2C)c(F)c1` [Example 21, Methyl (3-(3-fluoro-4-((2-methyl-1H-imidazol-1-yl)methyl)phenyl)-5-isobutyl-thio-phen-2-yl)sulfonylcarbamate], the inhibition at 10 µM on CYP2C9 amounted to 51.4%; on CYP2C19 it was 13.8%; on CYP2B6, 16.6%; at CYP2D6, 16.3%; on CYP2C8, 44.2%; on CYP1A, 58.7%. Also, the inhibition at 10 µM on CYP3A4 was -48%; in the series with CYP3A4&5, 8%. For the same compound, the half-life at 1 uM in [1] (setting [2]) and in series [1] (setting [3]) was greater than 1 h each time.
As for `CC(C)Cc1cc(-c2ccc(Cn3ccnc3C(C)(C)C)c(F)c2)c(S(=O)(=O)NC(=O)OCC(C)(C)O)s1` [Example 23, 2-Hydroxy-2-methylpropyl (3-(4-((2-(tert-butyl)-1H-imidazol-1-yl)methyl)-3-fluoro-Phenyl)-5-isobutylthiophen-2-yl)sulfonylcarbamate], the inhibition at 10 µM on CYP2C9 was determined as 47%; on CYP2C19 it was 51.2%; at CYP2B6 it was 16.8%; on CYP2D6 it was 5.8%; on CYP2C8 it was 74.7%; at CYP1A, 16.7%. Further, the inhibition at 10 µM at CYP3A4 was -14.1%; with CYP3A4&5 it was 12.5%.
`CCc1nccn1Cc1ccc(-c2cc(CC(C)C)sc2S(=O)(=O)NC(=O)OCCO)cc1F` [Example 24, 2-Hydroxyethyl (3-(4-((2-ethyl-1H-imidazol-1-yl)methyl)-3-fluorophenyl)-5-isobutyl-thiophen-2-yl)sulfonylcarbamate]: the half-life at 1 uM in series [1] (setting [2]) and in [1] (setting [3]) was greater than 1 h in each case.
